Values after ≈ are worked out from the molar mass of the structure shown. Bounds are passed on as bounds.

The test system of the assay is P388. Briefly: Cytotoxicity against P-388 leukemia cells. It counts as functional, cell-based. As to conditions: Mus musculus.
What is called IC50 is the concentration needed to halve the response being measured. A higher IC50 goes with weaker potency. `COc1cc(-c2c3c(nc4cc5c(cc24)OCCO5)COC3=O)cc(OC)c1OC` came in with an IC50 of 80 µg/mL (≈ 195 µM). Next, `COc1ccc(C2C3=C(O)OCC3=Nc3cc4c(cc32)OCO4)cc1` (centres undefined): 0.13 µg/mL (≈ 0.385 µM); `COc1cc(C2C3=C(O)OCC3=Nc3cc4c(cc32)-c2ccccc2C4)cc(OC)c1OC` (centres undefined): 0.92 µg/mL (≈ 2.08 µM). Molecule `COc1cc(-c2c3c(nc4cc5c(cc24)OCO5)CCC3=O)cc(OC)c1OC` showed an IC50 of 71 µg/mL (≈ 180 µM).

Take `COc1cccc(-c2c3c(nc4cc5c(cc24)OCO5)COC3=O)c1`: the IC50 is > 100 µg/mL. The value for `COc1cc(C2C3=C(COC3=O)Nc3cc4c(cc32)OCO4)cc(OC)c1OC` (centres undefined) was 0.0018 µg/mL (≈ 0.00453 µM); that for `OC1=C2C(=Nc3cc4c(cc3C2c2ccccc2)OCO4)CO1` (centres undefined) was 0.0053 µg/mL (≈ 0.0172 µM); that for `COc1cc2c(cc1OC)C(c1cc(OC)c(OC)c(OC)c1)C1=C(O)OCC1=N2` (centres undefined) was 4.9 µg/mL (≈ 11.9 µM). The value for `COc1cc2nc3c(c(-c4cc(OC)c(OC)c(OC)c4)c2cc1OC)C(=O)OC3` was > 100 µg/mL. The molecule `COc1ccc(-c2c3c(nc4cc5c(cc24)OCO5)COC3=O)cc1OC` gave an IC50 of 40 µg/mL (≈ 109 µM). Consider `COc1cc(-c2c3c(nc4cc5c(cc24)CCC5)COC3=O)cc(OC)c1OC`, for which the IC50 was > 100 µg/mL.

In turn, `COc1cc2c(cc1OC)C(c1ccc3c(c1)OCO3)C1=C(O)OCC1=N2` (centres undefined) yielded an IC50 of 0.77 µg/mL (≈ 2.1 µM).

Molecule `COc1cc(C2C3=C(COC3=O)Nc3cc(OC)c(OC)c(OC)c32)cc(OC)c1OC` (centres undefined) returned an IC50 of 2.6 µg/mL (≈ 5.86 µM).

The molecule `COc1cc(C2C3=C(O)OCC3=Nc3cc4c(cc32)OCCO4)cc(OC)c1OC` (centres undefined) registered an IC50 of 0.0017 µg/mL (≈ 0.00413 µM). Compared with the last molecule, the IC50 is about 1500-fold lower. Next, `COc1cccc(C2C3=C(O)OCC3=Nc3cc4c(cc32)OCO4)c1` (centres undefined): 0.0053 µg/mL (≈ 0.0157 µM); `COc1ccc(-c2c3c(nc4cc5c(cc24)OCO5)COC3=O)cc1`: > 100 µg/mL. `COc1ccc(C2c3cc4c(cc3NC3COC(=O)C32)OCO4)cc1OC` (centres undefined): the midpoint of inhibition, the IC50, lay at 0.048 µg/mL (≈ 0.13 µM). Molecule `OC1=C2C(=Nc3cc4c(cc3C2c2ccc3c(c2)OCO3)OCO4)CO1` (centres undefined) yielded an IC50 of 0.03 µg/mL (≈ 0.0854 µM).

Molecule `COc1cc2nc3c(c(-c4ccc5c(c4)OCO5)c2cc1OC)C(=O)OC3` displayed an IC50 of 2 µg/mL (≈ 5.47 µM). With `COc1ccc(-c2c3c(nc4cc(OC)c(OC)cc24)COC3=O)cc1OC`, the IC50 stood at 39 µg/mL (≈ 102 µM). `COc1cc(-c2c3c(nc4cc5c(cc24)-c2ccccc2C5)COC3=O)cc(OC)c1OC` yielded an IC50 of 63 µg/mL (≈ 143 µM). Regarding `COc1cc(-c2c3c(nc4cc5c(cc24)OCO5)COC3=O)cc(OC)c1OC`, the IC50 is > 100 µg/mL. Next, `COc1cc(C2C3=C(O)OCC3=Nc3cc4c(cc32)CCC4)cc(OC)c1OC` (centres undefined): 0.0041 µg/mL (≈ 0.0104 µM); `COc1cc(-c2c3c(nc4cc(OC)c(OC)c(OC)c24)COC3=O)cc(OC)c1OC`: 29 µg/mL (≈ 65.7 µM).

`COc1ccc(C2C3=C(O)OCC3=Nc3cc(OC)c(OC)cc32)cc1OC` (centres undefined): 0.76 µg/mL (≈ 1.98 µM) corresponded to half-maximal inhibition (IC50). Next, `COc1cc([C@@H]2c3cc4c(cc3[C@H](O)[C@H]3COC(=O)[C@H]23)OCO4)cc(OC)c1OC` [PODOFILOX]: 0.0043 µg/mL (≈ 0.0104 µM); `COc1cc(C2C3=C(O)CCC3=Nc3cc4c(cc32)OCO4)cc(OC)c1OC` (centres undefined): 0.028 µg/mL (≈ 0.0708 µM). The value for `O=C1OCc2nc3cc4c(cc3c(-c3ccc5c(c3)OCO5)c21)OCO4` was > 100 µg/mL; that for `O=C1OCc2nc3cc4c(cc3c(-c3ccccc3)c21)OCO4` was 60 µg/mL (≈ 197 µM).

The record behind these values is ChEMBL document CHEMBL1133388, “4-Aza-2,3-dehydro-4-deoxypodophyllotoxins: simple aza-podophyllotoxin analogues possessing potent cytotoxicity” (Bioorg Med Chem Lett, 2000).
